Literature values, collected in patent publication US12391711B2 (priority 2020, dated 2025).

Conditions: human, Pain Res. Manag., 2005, 10: 15A-22A

In the case of CCCCCc1cc(O)c2c(c1)OC(C)(C)[C@@H]1CCC(C)=C[C@@H]21 [THC, (6aR,10aR)-6,6,9-trimethyl-3-pentyl-6a,7,8,10a-tetrahydro-6H-benzo[c]chromen-1-ol], the oral bioavailability is listed as 4%-12%.
